Experimental data: the supplement of paper PMC10307832

Tests used:
Experiment in all cases: relative viability (nuclei count vs DMSO), 5 days (fraction); higher = more cells survive
PC-3 [JPC-3] = test system: PC-3 [JPC-3]
Summary of the method: (§1)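 Medians of duplicate plates are given as relative viability. That measure is the nuclei count in treated wells divided by the count in vehicle wells. Counts were taken on 4× images of lung cancer cell lines in 1536-well plates, 5 days after pin-tool dosing the day after seeding with one drug alone or a fixed anchor-drug dose plus five library-drug doses (not always all listed) in √10 steps.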

LXF-289 = test system: LXF-289
Summary of the method: as §1

HOP-62 = test system: HOP-62
Summary of the method: as §1

EMC-BAC-2 = test system: EMC-BAC-2
Summary of the method: as §1

SW 900 = test system: SW 900
Summary of the method: as §1

NCI-H3122 = test system: NCI-H3122
Summary of the method: as §1

SK-MES-1 = test system: SK-MES-1
Summary of the method: as §1

NCI-H2170 = test system: NCI-H2170
Summary of the method: as §1

NCI-H596 = test system: NCI-H596
Summary of the method: as §1

A-427 = test system: A-427
Summary of the method: as §1

NCI-H322M = test system: NCI-H322M
Summary of the method: as §1

NCI-H1792 = test system: NCI-H1792
Summary of the method: as §1

NCI-H2009 = test system: NCI-H2009
Summary of the method: as §1

NCI-H2228 = test system: NCI-H2228
Summary of the method: as §1

LK-2 = test system: LK-2
Summary of the method: as §1

SW 1573 = test system: SW 1573
Summary of the method: as §1

ABC-1 = test system: ABC-1
Summary of the method: as §1

NCI-H1944 = test system: NCI-H1944
Summary of the method: as §1

NCI-H522 = test system: NCI-H522
Summary of the method: as §1

HARA = test system: HARA
Summary of the method: as §1

NCI-H1993 = test system: NCI-H1993
Summary of the method: as §1

NCI-H727 = test system: NCI-H727
Summary of the method: as §1

For `O=c1cc(-c2cccc3c2Sc2ccccc2S3)oc(N2CCOCC2)c1` + Cc1nc(Nc2ncc(C(=O)Nc3c(C)cccc3Cl)s2)cc(N2CCN(CCO)CC2)n1 [Dasatinib] (partner 0.075 µM), which relative viability (PC-3 [JPC-3]; first compound 0.08 µM) is on record?
Its relative viability is 1.

And the relative viability (PC-3 [JPC-3]; first compound 0.253 µM)?
Its relative viability is 0.949.

And the relative viability (PC-3 [JPC-3]; first compound 0.8 µM)?
The relative viability was 1.07.

What about the relative viability (PC-3 [JPC-3]; first compound 2.53 µM) of the same compound?
The relative viability was 0.828.

And the relative viability (PC-3 [JPC-3]; first compound 8 µM)?
The relative viability was 1.05.

And the relative viability (LXF-289; first compound 0.08 µM)?
The relative viability was 0.219.

And the relative viability (LXF-289; first compound 0.253 µM)?
Its relative viability is 0.21.

And the relative viability (LXF-289; first compound 0.8 µM)?
Its relative viability is 0.226.

And the relative viability (LXF-289; first compound 2.53 µM)?
The relative viability was 0.239.

What about the relative viability (LXF-289; first compound 8 µM) of the same compound?
Its relative viability is 0.224.

What about the relative viability (HOP-62; first compound 0.08 µM) of the same compound?
Its relative viability is 0.615.

What about the relative viability (HOP-62; first compound 0.253 µM) of the same compound?
Its relative viability is 0.835.

And the relative viability (HOP-62; first compound 0.8 µM)?
Its relative viability is 0.679.

And the relative viability (HOP-62; first compound 2.53 µM)?
Its relative viability is 0.562.

And the relative viability (HOP-62; first compound 8 µM)?
Its relative viability is 0.543.

What about the relative viability (EMC-BAC-2; first compound 0.08 µM) of the same compound?
Its relative viability is 0.252.

What about the relative viability (EMC-BAC-2; first compound 0.253 µM) of the same compound?
Its relative viability is 0.368.

And the relative viability (EMC-BAC-2; first compound 0.8 µM)?
Its relative viability is 0.306.

What about the relative viability (EMC-BAC-2; first compound 2.53 µM) of the same compound?
The relative viability was 0.303.

What about the relative viability (EMC-BAC-2; first compound 8 µM) of the same compound?
Its relative viability is 0.399.

And the relative viability (SW 900; first compound 0.08 µM)?
The relative viability was 0.503.

What about the relative viability (SW 900; first compound 0.253 µM) of the same compound?
Its relative viability is 0.919.

What about the relative viability (SW 900; first compound 0.8 µM) of the same compound?
The relative viability was 0.352.

And the relative viability (SW 900; first compound 2.53 µM)?
The relative viability was 0.44.

What about the relative viability (SW 900; first compound 8 µM) of the same compound?
The relative viability was 0.538.

And the relative viability (NCI-H3122; first compound 0.08 µM)?
The relative viability was 0.79.

And the relative viability (NCI-H3122; first compound 0.253 µM)?
Its relative viability is 0.787.

What about the relative viability (NCI-H3122; first compound 0.8 µM) of the same compound?
The relative viability was 0.784.

And the relative viability (NCI-H3122; first compound 2.53 µM)?
The relative viability was 0.828.

What about the relative viability (NCI-H3122; first compound 8 µM) of the same compound?
Its relative viability is 0.929.

And the relative viability (SK-MES-1; first compound 0.08 µM)?
The relative viability was 0.335.

And the relative viability (SK-MES-1; first compound 0.253 µM)?
Its relative viability is 0.256.

What about the relative viability (SK-MES-1; first compound 0.8 µM) of the same compound?
The relative viability was 0.312.

What about the relative viability (SK-MES-1; first compound 2.53 µM) of the same compound?
The relative viability was 0.317.

And the relative viability (SK-MES-1; first compound 8 µM)?
The relative viability was 0.289.

And the relative viability (NCI-H2170; first compound 0.08 µM)?
The relative viability was 0.494.

And the relative viability (NCI-H2170; first compound 0.253 µM)?
Its relative viability is 0.571.

What about the relative viability (NCI-H2170; first compound 0.8 µM) of the same compound?
The relative viability was 0.611.

And the relative viability (NCI-H2170; first compound 2.53 µM)?
The relative viability was 0.477.

What about the relative viability (NCI-H2170; first compound 8 µM) of the same compound?
Its relative viability is 0.564.

What about the relative viability (NCI-H596; first compound 0.08 µM) of the same compound?
Its relative viability is 0.662.

And the relative viability (NCI-H596; first compound 0.253 µM)?
The relative viability was 0.636.

And the relative viability (NCI-H596; first compound 0.8 µM)?
Its relative viability is 0.541.

What about the relative viability (NCI-H596; first compound 2.53 µM) of the same compound?
The relative viability was 0.504.

And the relative viability (NCI-H596; first compound 8 µM)?
The relative viability was 0.594.

And the relative viability (A-427; first compound 0.08 µM)?
The relative viability was 0.695.

What about the relative viability (A-427; first compound 0.253 µM) of the same compound?
The relative viability was 0.871.

And the relative viability (A-427; first compound 0.8 µM)?
The relative viability was 0.744.

What about the relative viability (A-427; first compound 8 µM) of the same compound?
Its relative viability is 0.884.

And the relative viability (NCI-H322M; first compound 0.08 µM)?
The relative viability was 0.251.

And the relative viability (NCI-H322M; first compound 0.253 µM)?
Its relative viability is 0.262.

And the relative viability (NCI-H322M; first compound 0.8 µM)?
Its relative viability is 0.249.

What about the relative viability (NCI-H322M; first compound 2.53 µM) of the same compound?
The relative viability was 0.253.

What about the relative viability (NCI-H322M; first compound 8 µM) of the same compound?
The relative viability was 0.279.

What about the relative viability (NCI-H1792; first compound 0.08 µM) of the same compound?
The relative viability was 0.791.

And the relative viability (NCI-H1792; first compound 0.253 µM)?
The relative viability was 1.01.

And the relative viability (NCI-H1792; first compound 0.8 µM)?
The relative viability was 0.617.

And the relative viability (NCI-H1792; first compound 2.53 µM)?
Its relative viability is 0.728.

What about the relative viability (NCI-H1792; first compound 8 µM) of the same compound?
Its relative viability is 1.04.

What about the relative viability (NCI-H2009; first compound 0.08 µM) of the same compound?
Its relative viability is 0.298.

And the relative viability (NCI-H2009; first compound 0.253 µM)?
Its relative viability is 0.301.

And the relative viability (NCI-H2009; first compound 0.8 µM)?
Its relative viability is 0.29.

And the relative viability (NCI-H2009; first compound 2.53 µM)?
Its relative viability is 0.235.

And the relative viability (NCI-H2009; first compound 8 µM)?
Its relative viability is 0.254.

And the relative viability (NCI-H2228; first compound 0.08 µM)?
Its relative viability is 0.547.

What about the relative viability (NCI-H2228; first compound 0.253 µM) of the same compound?
The relative viability was 0.6.

What about the relative viability (NCI-H2228; first compound 0.8 µM) of the same compound?
The relative viability was 0.625.

What about the relative viability (NCI-H2228; first compound 2.53 µM) of the same compound?
The relative viability was 0.402.

And the relative viability (NCI-H2228; first compound 8 µM)?
Its relative viability is 0.51.

What about the relative viability (LK-2; first compound 0.08 µM) of the same compound?
Its relative viability is 0.306.

And the relative viability (LK-2; first compound 0.253 µM)?
The relative viability was 0.252.

And the relative viability (LK-2; first compound 0.8 µM)?
The relative viability was 0.267.

What about the relative viability (LK-2; first compound 2.53 µM) of the same compound?
The relative viability was 0.145.

And the relative viability (LK-2; first compound 8 µM)?
Its relative viability is 0.263.

What about the relative viability (SW 1573; first compound 0.08 µM) of the same compound?
Its relative viability is 0.417.

And the relative viability (SW 1573; first compound 0.253 µM)?
Its relative viability is 0.66.

And the relative viability (SW 1573; first compound 0.8 µM)?
Its relative viability is 0.706.

What about the relative viability (SW 1573; first compound 2.53 µM) of the same compound?
The relative viability was 0.436.

And the relative viability (SW 1573; first compound 8 µM)?
The relative viability was 0.461.

What about the relative viability (ABC-1; first compound 0.08 µM) of the same compound?
The relative viability was 0.604.

And the relative viability (ABC-1; first compound 0.253 µM)?
Its relative viability is 0.651.

What about the relative viability (ABC-1; first compound 0.8 µM) of the same compound?
The relative viability was 0.531.

What about the relative viability (ABC-1; first compound 2.53 µM) of the same compound?
The relative viability was 0.492.

And the relative viability (ABC-1; first compound 8 µM)?
Its relative viability is 0.653.

And the relative viability (NCI-H1944; first compound 0.08 µM)?
Its relative viability is 0.21.

What about the relative viability (NCI-H1944; first compound 0.253 µM) of the same compound?
Its relative viability is 0.223.

And the relative viability (NCI-H1944; first compound 0.8 µM)?
Its relative viability is 0.207.

What about the relative viability (NCI-H1944; first compound 2.53 µM) of the same compound?
The relative viability was 0.176.

What about the relative viability (NCI-H1944; first compound 8 µM) of the same compound?
The relative viability was 0.24.

And the relative viability (NCI-H522; first compound 0.08 µM)?
Its relative viability is 0.895.

What about the relative viability (NCI-H522; first compound 0.253 µM) of the same compound?
Its relative viability is 0.983.

What about the relative viability (NCI-H522; first compound 0.8 µM) of the same compound?
Its relative viability is 0.872.

What about the relative viability (NCI-H522; first compound 2.53 µM) of the same compound?
Its relative viability is 0.71.

What about the relative viability (NCI-H522; first compound 8 µM) of the same compound?
The relative viability was 0.781.

What about the relative viability (HARA; first compound 0.08 µM) of the same compound?
Its relative viability is 0.294.

What about the relative viability (HARA; first compound 0.253 µM) of the same compound?
Its relative viability is 0.31.

And the relative viability (HARA; first compound 0.8 µM)?
Its relative viability is 0.234.

And the relative viability (HARA; first compound 2.53 µM)?
Its relative viability is 0.241.

What about the relative viability (HARA; first compound 8 µM) of the same compound?
Its relative viability is 0.377.

And the relative viability (NCI-H1993; first compound 0.08 µM)?
The relative viability was 0.519.

What about the relative viability (NCI-H1993; first compound 0.253 µM) of the same compound?
The relative viability was 0.581.

What about the relative viability (NCI-H1993; first compound 0.8 µM) of the same compound?
The relative viability was 0.544.

What about the relative viability (NCI-H1993; first compound 2.53 µM) of the same compound?
The relative viability was 0.525.

What about the relative viability (NCI-H1993; first compound 8 µM) of the same compound?
The relative viability was 0.56.

What about the relative viability (NCI-H727; first compound 0.08 µM) of the same compound?
Its relative viability is 0.332.

And the relative viability (NCI-H727; first compound 0.253 µM)?
The relative viability was 0.438.

What about the relative viability (NCI-H727; first compound 0.8 µM) of the same compound?
Its relative viability is 0.449.

And the relative viability (NCI-H727; first compound 2.53 µM)?
The relative viability was 0.382.

And the relative viability (NCI-H727; first compound 8 µM)?
Its relative viability is 0.409.
